Source: patent US11344510B2, “Arylcyclohexylamine derivatives and their use in the treatment of psychiatric disorders” (Gilgamesh Pharmaceuticals, Inc., priority 2019, dated 2022)
“Also recorded” adds a separate entry of the source. Counter-ions that a name gives are not always drawn.

Experiments:
[1] = tested on: mice (conditioned place preference model of abuse liability); experiment: Conditioned place preference in mice; format: in vivo, C57BL/6 mice; details: s.c., 3 drug conditioning trials, relative to saline vehicle
Procedure: Animals. Male C57BL/6 mice, 5-8 weeks of age, (body weight 25-30 g; Envigo, Indianapolis, Ind., USA) were housed 5 per polycarbonate tub with soft bedding in a temperature- and humidity-controlled vivarium. Mice were maintained under a 12-h light/dark cycle with lights on at 06:00. Food and water were available ad libitum Animals acclimated to the vivarium 1 week prior to experimental manipulations.
Drugs and Drug Administration. Test compounds and saline vehicle were administered subcutaneously (s.c.), with doses calculated based on the HCl salt, while the positive control oxycodone was administered intraperitoneally (i.p.), with the dose calculated based on the HCl salt. Normal saline was used as the vehicle. […]
Conditioned Place Preference. Reward and/or aversion was assessed in conditioned place preference chambers (Model MED-CPP-3013; Med Associates, St. Albans, Vt.). […]
Group size was n=10 per treatment. […] Final drug preference is assessed in a 15-minute post-conditioning trial and is calculated by subtracting the time in the drug-paired compartment at baseline from the time in the drug-paired compartment post-conditioning, with positive values reflecting reward and negative values reflecting aversion.
For all trials, time spent in chambers as well as movement was quantified by infrared photobeam detectors and calculated by Med-PC IV software. […]

mice (forced swim test) = experiment: Forced swim test in mice, 30-minute pre-treatment; format: in vivo, Swiss Webster mice; details: s.c., 30 minutes before test, relative to vehicle
Procedure: Animals. Male Swiss Webster mice, aged 4-5 weeks (body weight 25-30 g, Envigo) were used in the experiments Animals were housed in groups of 4-5 under controlled temperatures and 12-hour light/dark cycles, with ad libitum food (Teklad 7001 rodent diet) and water. These studies were carried out in strict accordance with the recommendations in the Guide for the Care and Use of Laboratory Animals of the National Institutes of Health. All efforts were made to minimize suffering.
Drugs and Drug Administration. Imipramine hydrochloride was administered intraperitoneally (i.p.) at a dose of 30 mg/kg. Other compounds were tested as the racemates (indicated by “rac” nomenclature) and were administered subcutaneously (s.c.) as the hydrochloride salts. Normal saline was used as the vehicle and all compounds were administered at a volume of 10 mL/kg, 30 minutes before behavioral testing.
Forced Swim Test (FST). Group size was n=10 per treatment Animals were acclimated to the testing room 30 minutes prior to behavioral testing. Mice were placed individually in a cylinder of water measuring 5 inches wide by 10 inches tall and maintained at 24-25° C. The activity of each mouse was recorded for 6 minutes using Noldus Ethovision tracking software, with periods of inactivity being automatically quantified.
Statistical Analysis. The data points shown are the mean±standard error of the mean (SEM). Analysis was performed using GraphPad Prism 6. Indicated statistical comparisons represent the results of unpaired, two-tailed t tests relative to vehicle (not corrected for multiple comparisons).

[2] = HLM stability (Low Activity); format: in vitro ADME; details: both sexes, human, liver microsomes, pH 7.4, Condition 1 (Low Activity), 0.42 mg protein/mL
[3] = HLM stability (Low Activity, Alternative Method); format: in vitro ADME; details: both sexes, human, liver microsomes, pH 7.4, Condition 1 column, values marked *: Low Activity, 0.50 mg protein/mL
Procedure, shortened: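 Pooled male and female human liver microsomes (0.50 mg/mL) in 100 mM PBS pH 7.4 with 1 mM MgCl2 and 1 mM NADPH, compound 1 μM (1.0% solvent), 37° C with shaking, six time points over 60 min. Parent remaining measured by LC-MS/MS; kel, t1/2 and Clint from linear regression of ln(AUC) versus time.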

CN[C@@]1(c2ccccc2)CCCCC1=O [Compound 14R, (R)-2-(methylamino)-2-phenylcyclohexan-1-one]
conditioned place preference (abuse liability) [1]: neither preference nor aversion

CNC1(c2ccccc2)CCCCC1=O (racemic) [Compound 14rac, 2-(methylamino)-2-phenylcyclohexan-1-one hydrochloride]
immobility time in FST (mice (forced swim test); hydrochloride): reduced time immobile; also recorded: induced antidepressant-like effects
half-life at 2 μM [2]: 5.47 h
microsomal CLint at 2 μM [2]: 5 µL/min/mg

Cc1ccccc1[C@]1(N)CCCCC1=O [Compound 114R, (R)-2-amino-2-(o-tolyl)cyclohexan-1-one]
half-life at 1 μM [3]: > 2.42 h
microsomal CLint at 1 μM [3]: < 9.6 µL/min/mg

CN[C@]1(c2ccccc2)CCCCC1=O [Compound 14S, (S)-2-(methylamino)-2-phenylcyclohexan-1-one]
conditioned place preference (abuse liability) [1]: dose-dependent and significant preference

Cc1ccccc1[C@@]1(N)CCCCC1=O [Compound 114S, (S)-2-amino-2-(o-tolyl)cyclohexan-1-one]
half-life at 1 μM [3]: > 2.42 h
microsomal CLint at 1 μM [3]: < 9.6 µL/min/mg

CNC1(c2ccccc2Cl)CCCCC1=O (racemic) [rac-ketamine, racemic ketamine, reference compound]
immobility time in FST (mice (forced swim test)): did not have effects
half-life at 2 μM [2]: 1.31 h
microsomal CLint at 2 μM [2]: 21 µL/min/mg
